The target in assay [1] is T1, Tyrosine-protein phosphatase non-receptor type 1 (Homo sapiens, UniProt P18031).
T1 sequence (P18031 whole entry): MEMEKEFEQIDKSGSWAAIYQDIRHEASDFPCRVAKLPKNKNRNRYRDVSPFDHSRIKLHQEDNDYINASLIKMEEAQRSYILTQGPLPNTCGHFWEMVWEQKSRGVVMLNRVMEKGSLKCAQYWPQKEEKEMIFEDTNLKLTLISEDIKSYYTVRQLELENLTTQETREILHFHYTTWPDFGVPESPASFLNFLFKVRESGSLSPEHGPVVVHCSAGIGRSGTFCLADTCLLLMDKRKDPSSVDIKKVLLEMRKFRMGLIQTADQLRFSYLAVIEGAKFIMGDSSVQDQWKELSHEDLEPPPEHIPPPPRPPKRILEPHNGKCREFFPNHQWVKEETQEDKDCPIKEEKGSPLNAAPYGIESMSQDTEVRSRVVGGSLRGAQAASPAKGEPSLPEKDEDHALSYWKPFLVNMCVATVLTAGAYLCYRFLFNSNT
The assay can be described thus: Inhibition of recombinant human PTP1B using pNPP as substrate incubated for 10 mins prior to substrate addition measured after 30 mins by microplate reader analysis.

Assay [2] deals with T2, Tyrosine-protein phosphatase non-receptor type 1 (Homo sapiens) (UniProt P18031).
T2 sequence (whole entry): T1 sequence (P18031 whole entry)
The assay can be described thus: Inhibition of PTP1B in human Huh7 cells assessed as increase in insulin-stimulated phosphorylated Akt level at 20 uM preincubated for 2 hrs followed by insulin stimulation for 5 mins by Western blot analysis. Type of assay: cell-based. Particulars: Huh-7. (Immunoblotting shows a protein as a band on a membrane.)

Assay [3] can be described thus: Cytotoxicity against human HuH7 cells assessed as cell viability after 72 hrs by WST-1 assay. The conditions noted are these: Huh-7, 72 h. Type of assay: cell-based. On the technique in general: Tetrazolium dyes change colour on reduction, which living cells bring about.
Assay [4] in a line: Cytotoxicity against human EJ1 cells assessed as cell viability after 72 hrs by WST-1 assay. In kind it is cell-based. The conditions noted are these: EJ1, 72 h.
In assay [5] the target is T2, Tyrosine-protein phosphatase non-receptor type 1 (Homo sapiens). The assay can be described thus: Inhibition of PTP1B in human Huh7 cells assessed as increase in phosphorylated Akt level at 20 uM after 2 hrs by Western blot analysis. In kind it is cell-based. Particulars: Huh-7.
For assay [6] the target is unchanged. Nature of the assay: Inhibition of PTP1B in human Huh7 cells assessed as increase in phosphorylated Akt level at 50 uM after 2 hrs by Western blot analysis. Particulars: Huh-7. Type of assay: cell-based.
Assay [7] has the same target. The assay can be described thus: Inhibition of PTP1B in human Huh7 cells assessed as increase in insulin-stimulated phosphorylated Akt level at 50 uM preincubated for 2 hrs followed by insulin stimulation for 5 mins by Western blot analysis. Type of assay: cell-based. Particulars: Huh-7.
Assay [8] shares this target. Nature of the assay: Inhibition of recombinant human PTP1B using pNPP as substrate at 24 uM incubated for 10 mins prior to substrate addition measured after 30 mins by microplate reader analysis.
The target is the same in assay [9]. Nature of the assay: Inhibition of recombinant human PTP1B using pNPP as substrate at 36 uM incubated for 10 mins prior to substrate addition measured after 30 mins by microplate reader analysis.
The target is the same in assay [10]. Nature of the assay: Inhibition of PTP1B in human Huh7 cells assessed as increase in insulin-stimulated phosphorylated Akt level preincubated for 2 hrs followed by insulin stimulation for 5 mins by Western blot analysis. In kind it is cell-based. The conditions noted are these: Huh-7.

Structures are written as SMILES. Activity calls are given as the source filed them. No cut-off for these calls is given here. Where only a bound is given, the exact number is not on record here.

Turning to `CC(C)=CCC[C@](C)(N)[C@H]1CC=C(C)CC1`, the IC50 is more than 45 µM in assay [1], more than 50 µM in assay [3] and more than 50 µM in assay [4]. Besides, the inhibition entry in assay [2], in assay [5], in assay [6] and in assay [7] was “inactive” in each case.
As to `COc1cccc2c1C(=O)c1c(O)c3c(c(O)c1C2=O)C[C@@](O)(C(=O)CO)C[C@@H]3O[C@H]1C[C@H](N)[C@H](O)[C@H](C)O1` [DOXORUBICIN], the IC50 in [4] was 0.023 µM.
Take `C=C(C)[C@@H](C)/C=C/[C@@H](C)[C@H]1CC[C@@H]2[C@]1(C)CC[C@H]1[C@]23C=C[C@]2(C[C@@H](O)CC[C@]12C)OO3`: the inhibition in assay [8] is 50%. Moreover, the half-inhibitory concentration (IC50) came to 26 µM in [3] and 21 µM in [4].
As to `CC(C)[C@@H]1CC[C@](C)(N=C=S)[C@@H]2CC[C@@](C)(O)C=C12` [AXINISOTHIOCYANATE J], in [9], the inhibition worked out at 50%. Besides, the IC50 in assay [3] and in [4] was more than 50 µM each time.
In the case of `CC1=C[C@H]2[C@@H](CC1)[C@@](C)(N=C=S)CC[C@H]2C(C)C`, the IC50 was 17 µM in assay [1], more than 50 µM in assay [3] and more than 50 µM in assay [4].
Turning to `CC(C)=CCC[C@](C)(NC(=O)N[C@@](C)(CCC=C(C)C)[C@H]1CC=C(C)CC1)[C@H]1CC=C(C)CC1`, the IC50 is 1.9 µM in assay [1], more than 50 µM in [3] and more than 50 µM in assay [4]. Moreover, the inhibition result in [5] and in assay [6] was “inactive” throughout. The inhibition entry in [10] was “Dose-dependent effect”.

As a reminder, the IC50 is the concentration needed to halve the response being measured. The inhibition is the drop in the measured response relative to a control, in per cent.

Source of the values: ChEMBL document CHEMBL3745610, “A dimeric urea of the bisabolene sesquiterpene from the Okinawan marine sponge Axinyssa sp. inhibits protein tyrosine phosphatase 1B activity in Huh-7 human hepatoma cells” (Bioorg Med Chem Lett, 2016).
